In experiment [1] the test system is PKB/Akt phosphorylation in mast cells. In words: SCF-induced PKB/Akt phosphorylation in mast cells. It counts as cell-based, mice. The conditions noted are these: Mast cell, 0.25 h; mast cells derived from mouse bone marrow, 20 ng/mL SCF for 15 minutes; read-out: IC50, inhibition of SCF-induced Akt Phosphorylation. Here is the method: Protocol: Primary bone marrow cells were isolated from 4-8 weeks old wild type mice and derived to mast cells by incubation with medium containing 20 ng/mL of stem cell factor (SCF) (PeproTech, Switzerland) and 20 ng/mL of IL-3 (PeproTech, Switzerland) for at least 4 weeks. Confirmation of the expression of mast cell specific surface markers was done by FACS analysis using antibodies against c-kit (cKit-PE mouse antibody; Pharmingen). Cells were maintained in culture in the presence of SCF and IL-3. To induce PKB/Akt phosphorylation, mast cells were resuspended at 2.5×10^6 cells/mL and starved in medium containing no SCF or IL-3 for 24 h. After preincubation with compounds or 1% DMSO for 20 minutes, cells were activated with 20 ng/mL of SCF for 15 minutes at 37° C., fixed in 1.5% paraformaldehyde for 20 minutes and permeabilised with 0.2% Triton X-100 for 10 minutes, at room temperature. PKB/Akt phosphorylation was visualized using phospho-Ser-473 specific Akt antibodies (Cell Signaling) and standard FACS protocols.

For experiment [2], the system named is Akt phosphorylation in B cells. Nature of the experiment: IgM-induced Akt phosphorylation in B cell (human PBMC, flow cytometry). In kind it is cell-based. The conditions noted are these: 5 min, CD19+ IgM+ B cells in human PBMC, anti IgM for 5 minutes, read-out: IC50, inhibition of IgM-induced Akt Phosphorylation. How it is done:
Human PBMC were prepared from a Buffy coat (Geneve Hospital) after a Ficoll gradient (FICOLL-PAQUE Plus PHARMACIA ref: 17-1440-03).
Cell concentration was adjusted to 10^6 cells per ml in RPMI (GIBCO Ref: 72400-21) without serum. Before stimulation, 90 μl of PBMC suspension was incubated with 10 μl of diluted compound in a 96 well round bottom plate for 20 minutes at 37° C.
For B cell activation, 30 μl of Fab′2 Goat anti IgM (Jackson Immuno-research) at 10 μg/ml was added to each well. After 5 minutes, cell activation was stopped with 4% paraformaldehyde (10 minutes at room temperature).
Fixed PBMC were then treated for 20 minutes with 0.15% Triton, washed twice with PBS and permeabilized with 50% methanol for 15 minutes.
PBMC were washed twice in PBS, resuspended in: PBS-4% FCS and incubated with anti P-Akt (1/100 dilution) for one hour at room temperature.
After one wash, PBMC were further stained for 30 minutes with a mixture of anti-CD19-PE (BD Biosciences), anti-IgM-FITC (BD Biosciences) and goat anti rabbit IgG-Alexa 647 (Molecular probe).
After washing, PBMC (Peripheral Blood Mononuclear Cells) were analysed on a FACSCalibur instrument (BD Biosciences) equipped with a 633 helium-neon laser, or stored at 4° C. for further analysis. 510^3 B cells events were gathered per sample in the CD19 positive region.
For the analysis, a threshold was applied on P-Akt histogram of CD 19+ IgM+ lymphocytes cells from the non-stimulated samples and the percentage of cells above this threshold was determined for each sample.
A general note: In flow cytometry, cells or beads pass a laser one at a time.

The structures appear in SMILES notation.

The source of these data is patent US8877757B2, “Pyrazine derivatives and use as PI3K inhibitors” (Merck Serono SA, priority 2005, dated 2014).

A word on the IC50: it is the concentration that inhibits the measured activity by half.

For `COc1cc(Nc2nc3ccccc3nc2NS(=O)(=O)c2ccc(CN3CCN(C)CC3)nc2)cc(OC)c1` [Example 149, N-{3-[(3,5-dimethoxyphenyl)amino]quinoxalin-2-yl}-6-[(4-methylpiperazin-1-yl)methyl]pyridine-3-sulfonamide], the IC50 in experiment [1] was 390 nM.

With `COc1cc(Nc2nc3ccccc3nc2NS(=O)(=O)c2ccc(CO)cc2)cc(OC)c1` [Example 134, N-{3-[(3,5-dimethoxyphenyl)amino]quinoxalin-2-yl}-4-(hydroxymethyl)benzenesulfonamide], the IC50 in experiment [1] was 210 nM.

Regarding `COc1ccc(Cl)c(Nc2nc3ccccc3nc2NS(=O)(=O)c2ccc(C)nc2)c1` [Example 111, N-{3-[(2-chloro-5-methoxyphenyl)amino]quinoxalin-2-yl}-6-methylpyridine-3-sulfonamide], in experiment [2], the IC50 amounted to 26 nM.

Turning to `COc1cc(Nc2nc3ccccc3nc2NS(=O)(=O)c2ccc(F)cc2)cc(OC)c1` [Example 56, N-{3-[(3,5-dimethoxyphenyl)amino]quinoxalin-2-yl}-4-fluorobenzene Sulfonamide], the IC50 in experiment [1] was 2420 nM.

Take `COc1cc(Nc2nc3ccccc3nc2NS(=O)(=O)c2cccc(CN3CCN(C)CC3)c2)cc(OC)c1` [Example 137, N-{3-[(3,5-dimethoxyphenyl)amino]quinoxalin-2-yl}-3-[(4-methylpiperazin-1-yl)methyl]benzenesulfonamide]: the figures for the IC50 in experiment [1] and in experiment [2] were 400 nM and 40 nM, respectively.

For the molecule `COc1cc(Nc2nc3ccccc3nc2NS(=O)(=O)c2ccc(CO)nc2)cc(OC)c1` [Example 135, N-{3-[(3,5-dimethoxyphenyl)amino]quinoxalin-2-yl}-6-(hydroxymethyl)pyridine-3-sulfonamide], in experiment [1], the IC50 came out at 540 nM.

For the molecule `COc1cc(Nc2nc3ccccc3nc2NS(=O)(=O)c2cccc(CN3CCOCC3)c2)cc(OC)c1` [Example 129, N-{3-[(3,5-dimethoxyphenyl)amino]quinoxalin-2-yl}-3-(morpholin-4-ylmethyl)benzenesulfonamide], the IC50 in experiment [2] was 290 nM.

With `COc1cc(Nc2nc3ccccc3nc2NS(=O)(=O)c2cccnc2)cc(OC)c1` [Example 95, N-{3-[(3,5-dimethoxyphenyl)amino]quinoxalin-2-yl}pyridine-3-sulfonamide], the IC50 in experiment [1] was determined as 1600 nM.

Regarding `COc1cc(Nc2nc3ccccc3nc2NS(=O)(=O)c2cccc(CO)c2)cc(OC)c1` [Example 132, N-{3-[(3,5-dimethoxyphenyl)amino]quinoxalin-2-yl}-3-(hydroxymethyl)benzenesulfonamide], the IC50 in experiment [1] came to 680 nM.

Turning to `COc1cc(Nc2nc3ccccc3nc2NS(=O)(=O)c2ccc(CN)s2)cc(OC)c1` [Example 150, 5-(aminomethyl)-N-{3-[(3,5-dimethoxyphenyl)amino]quinoxalin-2-yl}thiophene-2-sulfonamide], the IC50 in experiment [1] was 90 nM; in experiment [2], 7 nM.

For the molecule `COc1cc(Nc2nc3ccccc3nc2NS(=O)(=O)c2ccc(CN3CCN(C)CC3)cc2)cc(OC)c1` [Example 130, N-{3-[(3,5-dimethoxyphenyl)amino]quinoxalin-2-yl}-4-[(4-methylpiperazin-1-yl)methyl]benzenesulfonamide], the IC50 in experiment [1] is 130 nM; in experiment [2], 60 nM.

Consider `COc1cc(Nc2nc3ccccc3nc2NS(=O)(=O)c2ccccc2F)cc(OC)c1` [Example 15, N-{3-[(3,5-dimethoxyphenyl)amino]quinoxalin-2-yl}-2-fluorobenzene sulfonamide], for which the IC50 in experiment [2] came to 26 nM.

Take `COc1ccc(C)c(Nc2nc3ccccc3nc2NS(=O)(=O)c2ccc(C#N)cc2)c1` [Example 109, 4-cyano-N-{3-[(5-methoxy-2-methylphenyl)amino]quinoxalin-2-yl}benzenesulfonamide]: the IC50 in experiment [1] turned out to be 820 nM.

On to `COc1cc(Nc2nc3ccccc3nc2NS(=O)(=O)c2ccc(C)nc2)cc(OC)c1` [Example 106, N-{3-[(3,5-dimethoxyphenyl)amino]quinoxalin-2-yl}-6-methylpyridine-3-sulfonamide], for which the IC50 in experiment [1] was found to be 1220 nM.

Regarding `COc1ccc(OC)c(Nc2nc3ccccc3nc2NS(=O)(=O)c2ccc(CN)cc2)c1` [Example 131, 4-(aminomethyl)-N-{3-[(2,5-dimethoxyphenyl)amino]quinoxalin-2-yl}benzenesulfonamide], the figures for the IC50 in experiment [1] and in experiment [2] were 150 nM and 13 nM, respectively.

As to `COc1ccc(OC)c(Nc2nc3ccccc3nc2NS(=O)(=O)c2ccccc2F)c1` [Example 14, N-{3-[(2,5-dimethoxyphenyl)amino]quinoxalin-2-yl}-2-fluorobenzene sulfonamide], the IC50 in experiment [2] was determined as 34 nM.

`COc1cc(Nc2nc3ccccc3nc2NS(=O)(=O)c2ccccc2Cl)cc(OC)c1` [Example 38, 2-chloro-N-{3-[(3,5-dimethoxyphenyl)amino]quinoxalin-2-yl}benzene sulfonamide]: the figures for the IC50 in experiment [1] and in experiment [2] were 1890 nM and 40 nM, respectively.

As for `COc1ccc(OC)c(Nc2nc3ccccc3nc2NS(=O)(=O)c2ccccc2Cl)c1` [Example 42, 2-chloro-N-{3-[(2,5-dimethoxyphenyl)amino]quinoxalin-2-yl}benzene sulfonamide], in experiment [2], the IC50 was determined as 110 nM.

As for `COc1ccc(C)c(Nc2nc3ccccc3nc2NS(=O)(=O)c2cccnc2)c1` [Example 101, N-{3-[(5-methoxy-2-methylphenyl)amino]quinoxalin-2-yl}pyridine-3-sulfonamide], the IC50 in experiment [2] is 150 nM.

For the molecule `COc1cc(Nc2nc3ccccc3nc2NS(=O)(=O)c2cccc(CN(C)C)c2)cc(OC)c1` [Example 139, N-{3-[(3,5-dimethoxyphenyl)amino]quinoxalin-2-yl}-3-[(dimethylamino)methyl]benzenesulfonamide], the figures for the IC50 in experiment [1] and in experiment [2] were 270 nM and 27 nM, respectively.

In the case of `COc1cc(Nc2nc3ccccc3nc2NS(=O)(=O)c2ccc(CN3CCOCC3)cc2)cc(OC)c1` [Example 136, N-{3-[(3,5-dimethoxyphenyl)amino]quinoxalin-2-yl}-4-(morpholin-4-ylmethyl)benzenesulfonamide], the figures for the IC50 in experiment [1] and in experiment [2] were 1220 nM and 370 nM, respectively.

Turning to `COc1cc(Nc2nc3ccccc3nc2NS(=O)(=O)c2cn(C)cn2)cc(OC)c1` [Example 20, N-{3-[(3,5-dimethoxyphenyl)amino]quinoxalin-2-yl}-1-methyl-1H-imidazole-4-sulfonamide], the values for the IC50 in experiment [1] and in experiment [2] were 410 nM and 24 nM, respectively.

For `COc1cc(Nc2nc3ccccc3nc2NS(=O)(=O)c2ccc(C#N)cc2)cc(OC)c1` [Example 39, 4-cyano-N-{3-[(3,5-dimethoxyphenyl)amino]quinoxalin-2-yl}benzene sulfonamide], the IC50 in experiment [1] worked out at 350 nM; in experiment [2], 11 nM.

For `COc1ccc(C)c(Nc2nc3ccccc3nc2NS(=O)(=O)c2ccc(C)nc2)c1` [Example 110, N-{3-[(5-methoxy-2-methylphenyl)amino]quinoxalin-2-yl}-6-methylpyridine-3-sulfonamide], the IC50 in experiment [2] worked out at 140 nM.
